Common to all, as to format: functional
Assay [1] concerns Staphylococcus aureus. Briefly: In vitro antibacterial activity against Methicillin-resistant Staphylococcus aureus (MRSA) by broth microtube dilution method; value ranges from 1-8.
The species named for the next assay is Sus scrofa. Put plainly: DHP-I (porcine) susceptibility with respect to imipenem.
The subject of assay [2] is Staphylococcus aureus. Briefly: In vitro antibacterial activity against Methicillin-resistant Staphylococcus aureus (MRSA) by agar disc diffusion assay method with respect to imipenem. For orientation: In agar diffusion tests the substance spreads into inoculated agar from a disc or well.
Assay [3] has as its system Staphylococcus aureus. Briefly: In vitro antibacterial activity against Methicillin-susceptible Staphylococcus aureus (MSSA) by agar disc diffusion assay method with respect to imipenem.
Assay [4] has as its system Staphylococcus sp. Put plainly: In vitro antibacterial activity against Methicillin-resistant coagulase negative Staphylococci (MRCNS) by agar disc diffusion assay method with respect to imipenem.
A further assay has as its system Pseudomonas aeruginosa. Put plainly: In vitro antibacterial against Pseudomonas aeruginosa by agar disc diffusion assay method.
In a further assay the test system is Serratia. Put plainly: In vitro antibacterial against Serratia species. by agar disc diffusion assay method with respect to imipenem.
The test system of assay [5] is Staphylococcus sp. Briefly: In vitro antibacterial activity against Methicillin-resistant coagulase negative Staphylococci (MRCNS) by broth microtube dilution method; value ranges from 2-16.
In the next assay the test system is Klebsiella sp. Briefly: In vitro antibacterial against Klebsiella species. by agar disc diffusion assay method with respect to imipenem.
The next assay deals with Enterococcus sp. Briefly: In vitro antibacterial against Enterococcus species. by agar disc diffusion assay method with respect to imipenem.
The next assay concerns Proteus. Briefly: In vitro antibacterial against Proteus species. by agar disc diffusion assay method with respect to imipenem.
For a further assay, the system named is Escherichia coli. Put plainly: In vitro antibacterial against Escherichia coli by agar disc diffusion assay method with respect to imipenem.
For the next assay, the system named is Enterobacter sp. Put plainly: In vitro antibacterial against Enterobacter species. by agar disc diffusion assay method with respect to imipenem.

One may read the MIC50 as an inhibitory concentration at the 50% level, which refers to growth in some studies and to a panel of isolates in others. Read a low MIC50 as greater potency. What is called MIC90 is an inhibitory concentration at the 90% level, which refers to growth in some studies and to a panel of isolates in others. A higher MIC90 goes with weaker potency.

≈ marks a conversion by molar mass, not a printed value.

Take `C[C@@H](O)[C@H]1C(=O)N2C(C(=O)[O-])=C(c3ccc4c(c3)c3c[n+](C)ccc3n4C)C[C@H]12`: the MIC50 in the assay on Staphylococcus aureus [1] came to 4 µg/mL (≈ 10.2 µM); in the assay on Staphylococcus sp. [5], 8 µg/mL (≈ 20.4 µM). In addition, the MIC90 came to 8 µg/mL (≈ 20.4 µM) with Staphylococcus aureus [1] and 16 µg/mL (≈ 40.9 µM) with Staphylococcus sp. [5]. In the assay filed under Sus scrofa, this molecule returned a Relative susceptibility of 0.007. The Relative potency in the assay with Staphylococcus aureus [2] was 14 fold; with Staphylococcus aureus [3], 0.59 fold; in the assay with Staphylococcus sp. [4], 40 fold; in the assay on Pseudomonas aeruginosa, 0.026 fold; with Serratia it was 2.1 fold; with Klebsiella sp., 1.2 fold. Moreover, the Relative potency with Enterococcus sp. was found to be 3.7 fold; with Proteus it was 14 fold; with Escherichia coli, 1.5 fold; with Enterobacter sp., 0.94 fold.
`C[C@@H]([O-])[C@H]1C(=O)N2C(C(=O)[O-])=C(c3ccc4c(c3)c3c(ccc[n+]3C)n4C)C[C@H]12.[Na+]`: the MIC50 against Staphylococcus aureus [1] was found to be 4 µg/mL; against Staphylococcus sp. [5], 8 µg/mL. Moreover, the MIC90 against Staphylococcus aureus [1] is 8 µg/mL; in the assay with Staphylococcus sp. [5], 16 µg/mL. In addition, the Relative susceptibility in the assay listed under Sus scrofa was found to be 0. The Relative potency with Staphylococcus aureus [2] stood at 12 fold; with Staphylococcus aureus [3] it was 0.58 fold; in the assay on Staphylococcus sp. [4], 27 fold; with Pseudomonas aeruginosa, 0.018 fold; in the assay on Serratia, 2.2 fold; with Klebsiella sp., 1.1 fold. Moreover, the Relative potency in the assay with Enterococcus sp. was determined as 2.5 fold; in the assay with Proteus it was 9.3 fold; in the assay on Escherichia coli it was 1.3 fold; in the assay on Enterobacter sp., 1.2 fold.
With `C[C@@H](O)[C@H]1C(=O)N2C(C(=O)[O-])=C(c3ccc4c5cccnc5n(C)c4c3)C[C@H]12.[Na+]`, the Relative susceptibility in the assay listed under Sus scrofa was determined as 0.02. Moreover, the Relative potency in the assay with Staphylococcus aureus [2] is on record as 4.9 fold; in the assay on Staphylococcus aureus [3], 0.15 fold; in the assay on Staphylococcus sp. [4], 4.1 fold; in the assay on Pseudomonas aeruginosa, 0.007 fold; in the assay on Serratia, 0.051 fold; with Klebsiella sp. it was 0.054 fold. Besides, the Relative potency with Enterococcus sp. was 1.5 fold; in the assay with Proteus, 0.59 fold; in the assay with Escherichia coli it was 0.15 fold; with Enterobacter sp. it was 0.041 fold.
Consider `C[C@@H](O)[C@H]1C(=O)N2C(C(=O)[O-])=C(c3ccc4c(c3)c3ncccc3n4C)C[C@H]12.[Na+]`, for which the Relative susceptibility in the assay filed under Sus scrofa is 1.8. Moreover, the Relative potency in the assay with Staphylococcus aureus [2] came out at 5.3 fold; in the assay with Staphylococcus aureus [3], 0.2 fold; in the assay with Staphylococcus sp. [4], 4.5 fold; in the assay on Pseudomonas aeruginosa, 0.006 fold; in the assay with Serratia, 0.37 fold; with Klebsiella sp. it was 0.16 fold. Besides, the Relative potency in the assay with Enterococcus sp. worked out at 1.2 fold; with Proteus it was 6.6 fold; with Escherichia coli it was 0.31 fold; in the assay on Enterobacter sp., 0.065 fold.
The molecule `C[C@@H](O)[C@H]1C(=O)N2C(C(=O)O)=C(c3ccc4c(c3)c3ccncc3n4C)C[C@H]12` had a Relative susceptibility in the assay filed under Sus scrofa of 0.034.
The molecule `CC[n+]1cccc2c3cc(C4=C(C(=O)[O-])N5C(=O)[C@H]([C@@H](C)[O-])[C@H]5C4)ccc3n(C)c21.[Na+]` registered a Relative susceptibility in the assay listed under Sus scrofa of 0.01. Also, the Relative potency in the assay with Staphylococcus aureus [2] is given as 21 fold; in the assay on Staphylococcus aureus [3] it was 0.43 fold; with Staphylococcus sp. [4] it was 277 fold; in the assay on Pseudomonas aeruginosa, 0.035 fold; in the assay on Serratia, 3.2 fold; in the assay on Klebsiella sp., 1.4 fold. In addition, the Relative potency with Enterococcus sp. came to 3.7 fold; in the assay with Proteus it was 11 fold; with Escherichia coli, 2.8 fold; in the assay with Enterobacter sp. it was 1.4 fold.

These data come from ChEMBL document CHEMBL1128873, “The synthesis and antibacterial activity of 2-carbolinyl-carbapenems: potent anti-MRSA/MRCNS agents” (1995).
